Data as given in publication PMC5797708 (SLAS discovery : advancing life sciences R & D, 2017).
Read-outs that look alike come from different tables or passages of the source.

Experiments:
pre-miR-21 [1] = test: cat-ELCCA for Dicer-mediated pre-miRNA maturation; assay type: biochemical; conditions: for hit in HTS for inhibition of Dicer-mediated pre-miR-21 maturation: primary and confirmation screens at 25 µM, CRCs from 3.3 to 120 µM
pre-miR-21 [2] = conditions: previously shown; cited from earlier work

SMILES	hit in HTS for inhibition of Dicer-mediated pre-miR-21 maturation (pre-miR-21 [1])	further results
NC[C@H]1O[C@H](O[C@H]2[C@H](O)[C@@H](O[C@H]3O[C@H](CO)[C@@H](O)[C@H](N)[C@H]3O)[C@H](N)C[C@@H]2N)[C@H](O)[C@@H](O)[C@@H]1O [kanamycin]	–	inhibition of Dicer-mediated pre-miR-21 maturation (pre-miR-21 [1]; data not shown): do not inhibit
C=C1c2c(Cl)ccc(O)c2C(=O)C2=C(O)[C@]3(O)C(=O)C(C(N)=O)=C(O)[C@@H](N(C)C)[C@@H]3[C@@H](O)[C@H]12 [meclocycline]	emerged as hits	–
C=C1c2cccc(O)c2C(=O)C2=C(O)[C@]3(O)C(=O)C(C(N)=O)=C(O)[C@@H](N(C)C)[C@@H]3[C@@H](O)[C@H]12 [methacycline]	emerged as hits	–
CN(C)c1ccc(O)c2c1C[C@H]1C[C@H]3[C@H](N(C)C)C(O)=C(C(N)=O)C(=O)[C@@]3(O)C(O)=C1C2=O [minocycline]	emerged as hits	–
[H]/N=C(/N)N[C@H]1[C@H](O)[C@@H](O)[C@H](O[C@@H]2O[C@@H](C)[C@](O)(C=O)[C@H]2O[C@@H]2O[C@@H](CO)[C@H](O)[C@@H](O)[C@@H]2NC)[C@@H](N/C(N)=N\[H])[C@@H]1O [streptomycin]	–	inhibition of Dicer-mediated pre-miR-21 maturation (pre-miR-21 [2]): do not inhibit
